# Results as given in paper PMC6615261, “Repurposing Azithromycin and Rifampicin Against Gram-Negative Pathogens by Combination With Peptidomimetics” (Frontiers in Cellular and Infection Microbiology, 2019).
# Test system: E. coli clinical isolates and reference strains
# Test: MIC of fixed-ratio peptidomimetic 1-antibiotic combinations in clinical isolates and reference strains
# Type: cell-based, Escherichia coli
# Details: with rifampicin or azithromycin
# Source text: Bacterial strains used in this study comprise MDR clinical isolates of E. coli ST131 (Cerquetti et al., [2010]) and K. pneumoniae ST258 (Jana et al., [2017]), and American type culture collection (ATCC) strains: ATCC 25922 (E. coli), ATCC 13883 (K. pneumoniae), and ATCC 27853 (P. aeruginosa). Additional clinical isolates of E. coli, K. pneumoniae, and P. aeruginosa resistant to β-lactams (including carbapenems and cephalosporins) were provided by Laurent Poirel, Université de Fribourg, Switzerland. The following growth media was routinely used for bacterial culturing: Luria-Burtani (LB), cation-adjusted Mueller-Hinton agar (MHA) and broth (MHB II). All assays were performed in cation-adjusted MHA or MHB II. Antibiotics were purchased from Sigma-Aldrich and the peptidomimetic collection (Table S1) was curated and provided by Henrik Franzyk. […]
# Minimal inhibitory concentrations (MICs) of peptidomimetics, antibiotics and their combinations were determined by broth microdilution according to the Clinical Laboratory Standards Institute performance standards (Clinical and Laboratory Standards Institute, [2013]). […] Potentiation of additional antibiotics by peptidomimetics was determined by using commercial 96-well plates containing varied concentrations of standard antibiotics (COMPAN1F; Trek Diagnostic Systems Inc.). The peptidomimetics were added immediately prior to inoculation with pathogen, and then MICs were determined as above. The MICs of peptidomimetic/antibiotic combinations were determined according to the method above, and the concentration ratios were selected based upon checkerboard results with 2:1 and 1:4 ratio of peptidomimetic with rifampicin or azithromycin, respectively. Minimal bactericidal concentrations (MBCs) were determined by using growth-curve assay plates. […] Growth was recorded at 10 min intervals as optical density (OD) at 600 nm during 24 h. […]
structure (smiles),measurement,value
"NCCCC[C@H](NC(=O)CCN(Cc1ccccc1)C(=O)[C@H](CCCCN)NC(=O)CCN(Cc1ccccc1)C(=O)[C@H](CCCCN)NC(=O)CCN(Cc1ccccc1)C(=O)[C@H](CCCCN)NC(=O)CCN(Cc1ccccc1)C(=O)[C@H](CCCCN)NC(=O)CCN(Cc1ccccc1)C(=O)[C@H](CCCCN)NC(=O)CCN(Cc1ccccc1)C(=O)[C@H](CCCCN)NC(=O)CCN(Cc1ccccc1)C(=O)[C@@H](N)CCCCN)C(=O)N(CCC(N)=O)Cc1ccccc1 [Peptidomimetic 1, H-(Lys-βNPhe)8-NH2]","Peptidomimetic concentration in combination, most E. coli isolates",0.5 to 1 µM
